In patent US10556888B2, “Pyrazole compounds or salts thereof, preparation methods therefor, herbicidal compositions and use thereof” (QINGDAO KINGAGROOT CHEMICAL COMPOUNDS CO., LTD, priority 2015, dated 2020):

Experiments:
Assay type in all cases: in vivo
Digitaria sanguinalis = assay: Control experiment, test in post-emergence stage; design: key: Level 10: completely dead; Level 9: above 90% growth inhibition rate; Level 8: above 80% growth inhibition rate; Level 7: above 70% growth inhibition rate; Level 6: above 60% growth inhibition rate; Level 5: above 50% growth inhibition rate; Level 4: above 30% growth inhibition rate; Level 3: above 20% growth inhibition rate; Level 2: above 10% growth inhibition rate; Level 1: above 1-10% growth inhibition rate; Level 0: no effect; settings: 5-6 leaf stage, 15 g/ha, observe time 25 day
Protocol: (§1) Test in post-emergence stage: seeds of monocotyledonous weeds and corn were put into a plastic pot loaded with soil, covered with 0.5-2 cm soil, and allowed to grow in good greenhouse environment. The test plants were treated at 5-6 leaf stage 4 weeks after sowing. The test compounds of the present invention were dissolved with acetone respectively, then added with tween 80, diluted by a certain amount of water to reach a certain concentration. The solution was sprayed to the plants by a spray tower. The test application rate was 15 g/ha and the observe time was 25 day.

Setaria viridis = assay: Control experiment, test in post-emergence stage; design: key: Level 10: completely dead; Level 9: above 90% growth inhibition rate; Level 8: above 80% growth inhibition rate; Level 7: above 70% growth inhibition rate; Level 6: above 60% growth inhibition rate; Level 5: above 50% growth inhibition rate; Level 4: above 30% growth inhibition rate; Level 3: above 20% growth inhibition rate; Level 2: above 10% growth inhibition rate; Level 1: above 1-10% growth inhibition rate; Level 0: no effect; settings: 5-6 leaf stage, 15 g/ha, observe time 25 day
Protocol: as §1

Echinochloa crus-galli = assay: Control experiment, test in post-emergence stage; design: key: Level 10: completely dead; Level 9: above 90% growth inhibition rate; Level 8: above 80% growth inhibition rate; Level 7: above 70% growth inhibition rate; Level 6: above 60% growth inhibition rate; Level 5: above 50% growth inhibition rate; Level 4: above 30% growth inhibition rate; Level 3: above 20% growth inhibition rate; Level 2: above 10% growth inhibition rate; Level 1: above 1-10% growth inhibition rate; Level 0: no effect; settings: 5-6 leaf stage, 15 g/ha, observe time 25 day
Protocol: as §1

Corn = assay: Control experiment, test in post-emergence stage, crop safety; design: key: Level 10: completely dead; Level 9: above 90% growth inhibition rate; Level 8: above 80% growth inhibition rate; Level 7: above 70% growth inhibition rate; Level 6: above 60% growth inhibition rate; Level 5: above 50% growth inhibition rate; Level 4: above 30% growth inhibition rate; Level 3: above 20% growth inhibition rate; Level 2: above 10% growth inhibition rate; Level 1: above 1-10% growth inhibition rate; Level 0: no effect; settings: 5-6 leaf stage, 15 g/ha, observe time 25 day
Protocol: as §1

[1] = tested on: main crop (wheat, corn, rice, soybean, cotton, oilseed, millet and sorghum); assay: Post-emergence test experiment, main crops (Table 2); design: key: Level 10: completely dead; Level 9: above 90% growth inhibition rate; Level 8: above 80% growth inhibition rate; Level 7: above 70% growth inhibition rate; Level 6: above 60% growth inhibition rate; Level 5: above 50% growth inhibition rate; Level 4: above 30% growth inhibition rate; Level 3: above 20% growth inhibition rate; Level 2: above 10% growth inhibition rate; Level 1: above 1-10% growth inhibition rate; Level 0: no effect; settings: 15 g/ha, 3 weeks after spraying, greenhouse
Outline: (§2)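 Compounds, dissolved in acetone, mixed with Tween 80 and diluted in water, were sprayed post-emergence onto greenhouse-grown weeds and crops at the 2-3 leaf stage (2-3 weeks post-sowing). Plants then grown 3 more weeks in the greenhouse before evaluation.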

[2] = tested on: Monocotyledonous and dicotyledonous weed; assay: Post-emergence test experiment, weed control effect (Table 2); design: key to weed control effect, Setaria viridis (level) / weed control effect, Rorippa indica (level) / weed control effect, Abutilon theophrasti (level) / weed control effect, Echinochloa crus-galli (level) / weed control effect, Digitaria sanguinalis (level): Level 10: completely dead; Level 9: above 90% growth inhibition rate; Level 8: above 80% growth inhibition rate; Level 7: above 70% growth inhibition rate; Level 6: above 60% growth inhibition rate; Level 5: above 50% growth inhibition rate; Level 4: above 30% growth inhibition rate; Level 3: above 20% growth inhibition rate; Level 2: above 10% growth inhibition rate; Level 1: above 1-10% growth inhibition rate; Level 0: no effect; settings: 15 g/ha, 3 weeks after spraying, greenhouse
Outline: as §2

[3] = tested on: Echinochloa crus-galli, Scirpus juncoides and Monochoria vaginalis; assay: Resistance tests on the collected weed seeds; settings: common rate; seeds collected from Heilongjing and Jiangsu Province of China
Description: The seeds of Echinochloa crus-galli, Scirpus juncoides and Monochoria vaginalis were collected from Heilongjing and Jiangsu Province of China.

SMILES	Digitaria sanguinalis (activity level) (Digitaria sanguinalis)	Setaria viridis (activity level) (Setaria viridis)	Echinochloa crus-galli (activity level) (Echinochloa crus-galli)	Corn (safety, activity level) (Corn)	effect on crop, corn (level) [1]	effect on crop, rice (level) [1]	effect on crop, wheat (level) [1]	weed control effect, Abutilon theophrasti (level) [2]	weed control effect, Bidens pilosa (level) [2]	weed control effect, Digitaria sanguinalis (level) [2]	weed control effect, Echinochloa crus-galli (level) [2]	weed control effect, Rorippa indica (level) [2]	weed control effect, Setaria viridis (level) [2]	Resistance of the weeds to the herbicide [3]
Cc1nn(C)cc1C(=O)Oc1c(C(=O)c2ccc(S(C)(=O)=O)c(COCC(F)(F)F)c2Cl)c(C)nn1C [Compound 29]	10	9 (Level 9: above 90% growth inhibition rate)	8 (Level 8: above 80% growth inhibition rate)	0	0	3 (Level 3: above 20% growth inhibition rate)	0	8 (Level 8: above 80% growth inhibition rate)	5 (Level 5: above 50% growth inhibition rate)	9 (Level 9: above 90% growth inhibition rate)	8 (Level 8: above 80% growth inhibition rate)	4 (Level 4: above 30% growth inhibition rate)	10	
CCOC(=O)c1cnn(C)c1S(=O)(=O)NC(=O)Nc1nc(OC)cc(OC)n1 [pyrazosulfuron-ethyl]														resistant
